From BindingDB's records for doi:10.1016/j.bmc.2018.07.019 (The Scripps Research Institute, 2018)

Experiment: Inhibition of ATG-Myc (unknown origin) expressed in CEF cells assessed as inhibition of microtumor formation

IC50 [µM]	Structure (SMILES)
> 100	N#Cc1ccc(-c2cc(-c3ccc(C(=O)NN)cc3)cc(-c3ccco3)n2)cc1
> 100	N#Cc1ccc(-c2cc(-c3ccc(C(N)=O)cc3)cc(-c3cccc(F)c3)n2)cc1
3	N#Cc1ccc(-c2cc(-c3ccc(C(N)=O)cc3)cc(-c3ccco3)n2)cc1
> 100	c1coc(-c2cc(-c3nccs3)cc(-c3ccc(-c4nccs4)cc3)n2)c1
2.5	NC(=O)c1ccc(-c2cc(-c3ccc(-c4cnco4)cc3)nc(-c3ccco3)c2)cc1
5	N#Cc1ccc(-c2cc(-c3ccc(C(N)=O)cc3)cc(-c3cnco3)n2)cc1
30	N#Cc1ccc(-c2cc(-c3ccc(C(N)=O)cc3)cc(-c3cncs3)n2)cc1
40	Cn1nncc1-c1cc(-c2ccc(C(N)=O)cc2)cc(-c2ccc(C#N)cc2)n1
40	Cn1ccnc1-c1cc(-c2ccc(C(N)=O)cc2)cc(-c2ccc(C#N)cc2)n1
10	CS(=O)(=O)NC(=O)c1ccc(-c2cc(-c3ccc(C#N)cc3)nc(-c3ccco3)c2)cc1
5	NC(=O)c1ccc(-c2cc(-c3ccc(-c4nccs4)cc3)nc(-c3ccco3)c2)cc1
7	N#Cc1ccc(-c2cc(-c3ccc(C(N)=O)cc3)nc(-c3ccco3)n2)cc1
> 100	COc1ccc(-c2cc(-c3ccc(C(N)=O)cc3)nc(-c3ccccc3)n2)cc1
> 100	N#Cc1ccc(-c2cc(-c3ccc(C(N)=O)cc3)nc(-c3cc[n+]([O-])cc3)n2)cc1
2	N#Cc1ccc(-c2cc(-c3ccc(-c4nnn[nH]4)cc3)cc(-c3ccco3)n2)cc1
